In patent US5783201A, “Method for treating non-ocular epithelial disorders via increasing heme oxygenase levels and/or decreasing levels of arachidonic acid derivatives” (Hemogen, Inc., priority 1997, dated 1998):

System: heme oxygenase
Experiment: microsomal heme oxygenase activity in CCD-860SK skin fibroblast cells
Format: cell-based, human
Conditions: 100 μM; CCD-860 skin fibroblast cells, collected after two hours; mean ± SD; control 294 ± 18
Experimental: Cell line CCD-860SK is a human skin fibroblast cell line which is publicly available from the American Type Culture Collection. Cell cultures of this line were propagated in Iscove's modified Dulbecco's medium supplemented with 10% fetal bovine […]. Following propagation, they were grown in 175 cm^2 Falcon tissue culture flasks, using Iscove's modified Dulbecco's medium, supplemented with 10% (v/v) heat inactivated fetal bovine serum, 50 U penicillin/ml, 50 ug streptomycin/ml, and 2 mM glutamine. The cells were then seeded into culture flasks at a concentration of 1×10^5 cells/ml, and incubated at 37° C. in a humidified 5% CO2 /95% air chamber. After three days, old media were removed, and replaced with fresh media. […]
To measure total enzyme activity, microsomes were prepared as described by Tenhunen et al., J. Biol. Chem. 244: 6388-6394 (1969), incorporated by reference herein. The activity of microsomal heme oxygenase was then determined, using 0.5-1 mg protein in an incubation medium as described by Tenhunen et al., supra. Total protein was then determined using the classic method of Lowry et al., J. Biol. Chem. 193: […] (1951), using bovine serum albumin as standard.

## [Cl][Sn][Cl] [SnCl2]
  Heme oxygenase: 802 ± 49 pmol bilirubin/mg/hr
